Data on 12 molecules can be found in ChEMBL document CHEMBL5058564, “EUbOPEN Chemogenomics Library 2 (Incucyte)” (2022).

What all share (assay type): toxicity, cell-based
In one data set the test system is HEK-293T. The experiment in a line: Incucyte cell viability with HEK293T. Particulars: human, 10 µM, compound concentration 10 uM.
Another data set has as its system U2OS. The experiment in a line: Incucyte cell viability with U2OS. To be noted: human, 10 µM, compound concentration 10 uM.
Another data set relates to Fibroblast. The experiment in a line: Incucyte cell viability with human fibroblast. Particulars: 10 µM, compound concentration 10 uM.
Setting [1] is: 0 h, replicate number 1, timepoint 0 hours.
[2] abbreviates: 0 h, replicate number 2, timepoint 0 hours.
Setting [3] is: 6 h, replicate number 1, timepoint 6 hours.
The mark [4] stands for this setting: 6 h, replicate number 2, timepoint 6 hours.
The mark [5] stands for this setting: 12 h, replicate number 1, timepoint 12 hours.
Where [6] appears, read: 12 h, replicate number 2, timepoint 12 hours.
Where [7] appears, read: 18 h, replicate number 1, timepoint 18 hours.
Where [8] appears, read: 24 h, replicate number 1, timepoint 24 hours.
Setting [9] is: 24 h, replicate number 2, timepoint 24 hours.
Setting [10] is: 18 h, replicate number 2, timepoint 18 hours.
Note: unitless GR value; below 1 slowed growth and below 0 cell loss.

On to `CN(C)CCCc1cc(C(=O)Nc2ccc(-c3ccncc3)cc2)ccc1O.Cl.Cl`, for which the “Growth Rate” value with HEK-293T (setting [1]) worked out at 0.52; with HEK-293T (setting [2]) it was 0.49; in the data set on HEK-293T (setting [3]), 0.98; in the data set on HEK-293T (setting [4]) it was 0.48; with HEK-293T (setting [5]), 0.69; in the data set with HEK-293T (setting [6]), 0.93. Further, the “Growth Rate” value is recorded as 0.69 with HEK-293T (setting [7]); 0.67 in the data set with HEK-293T (setting [8]); 0.98 with HEK-293T (setting [9]); -0.09 in the data set on U2OS (setting [1]); -0.87 in the data set with U2OS (setting [2]); 0.85 in the data set with Fibroblast (setting [1]). The “Growth Rate” value with Fibroblast (setting [2]) is 0.18; in the data set on Fibroblast (setting [3]), 0.34; in the data set on Fibroblast (setting [4]), 0.16; in the data set with Fibroblast (setting [5]) it was 0.34; in the data set on Fibroblast (setting [7]) it was 0; in the data set with Fibroblast (setting [10]), 0.66. The “Growth Rate” value in the data set with Fibroblast (setting [8]) is given as -0.07; in the data set with Fibroblast (setting [9]) it was 0.69.

As for `Cc1nn(C)c2nc(NNC(=O)Nc3cc(Cl)nc(Cl)c3)cc(C(C)C)c12`, the “Growth Rate” value in the data set on HEK-293T (setting [1]) is given as 0.64; in the data set on HEK-293T (setting [2]), 0.57; with HEK-293T (setting [8]), 0.97; with U2OS (setting [2]) it was -1; with U2OS (setting [6]), 0.96; in the data set on Fibroblast (setting [1]), 0.09. Besides, the “Growth Rate” value in the data set on Fibroblast (setting [2]) came out at 0.58.

Take `CCCCCCCC/C=C\CCCCCCCC(N)=O` [OLEAMIDE]: the “Growth Rate” value in the data set on HEK-293T (setting [1]) came to 0.61; with HEK-293T (setting [2]), 0.35; with HEK-293T (setting [3]) it was 0.79; with HEK-293T (setting [5]), 0.8; with HEK-293T (setting [6]) it was 0.99; with HEK-293T (setting [7]) it was 0.89. Moreover, the “Growth Rate” value in the data set with HEK-293T (setting [10]) is recorded as 0.94; in the data set on HEK-293T (setting [8]), 0.96; with HEK-293T (setting [9]) it was 1; in the data set on U2OS (setting [1]) it was 0.24; in the data set with U2OS (setting [2]), 0.51; in the data set with U2OS (setting [3]), 0.78. The “Growth Rate” value with U2OS (setting [4]) amounted to 1; with U2OS (setting [5]), 0.75; in the data set on U2OS (setting [6]) it was 0.79; in the data set with U2OS (setting [7]) it was 0.76; in the data set on U2OS (setting [10]), 0.89; in the data set on U2OS (setting [8]), 0.98. Also, the “Growth Rate” value in the data set on Fibroblast (setting [1]) was determined as 0.63; in the data set on Fibroblast (setting [2]), 0.02; with Fibroblast (setting [4]) it was 0.82.

On to `Nc1nc(Nc2ccccc2)nc2c1ncn2[C@@H]1O[C@H](CO)[C@@H](O)[C@H]1O`, for which the “Growth Rate” value with HEK-293T (setting [1]) is 0.49; in the data set with HEK-293T (setting [2]), -0.14; with HEK-293T (setting [3]), 0.52; in the data set on HEK-293T (setting [4]), 0.76; in the data set on HEK-293T (setting [5]), 0.7; with HEK-293T (setting [6]), 0.63. For the same molecule, the “Growth Rate” value is 0.76 in the data set on HEK-293T (setting [7]); 0.95 with HEK-293T (setting [10]); 0.85 with HEK-293T (setting [8]); 0.9 in the data set on HEK-293T (setting [9]); 0.4 in the data set with U2OS (setting [1]); 0.95 with U2OS (setting [3]). Further, the “Growth Rate” value was 0.84 in the data set on U2OS (setting [5]); 0.91 with U2OS (setting [10]); 0.93 with U2OS (setting [8]); 0.77 in the data set on Fibroblast (setting [1]); 0.2 in the data set on Fibroblast (setting [2]); 0.83 in the data set with Fibroblast (setting [5]). The “Growth Rate” value in the data set with Fibroblast (setting [6]) is listed as 0.96; in the data set on Fibroblast (setting [8]), 0.93.

As to `CN1CCc2cc(Cl)c(O)cc2[C@@H](c2ccccc2)C1.Cl`, the “Growth Rate” value in the data set on HEK-293T (setting [2]) is given as 0.66; with HEK-293T (setting [4]), 0.46; in the data set with HEK-293T (setting [6]), 0.71; with U2OS (setting [2]), -1; with U2OS (setting [4]), 0.49; in the data set with U2OS (setting [10]), 0.86. The “Growth Rate” value was 0.95 in the data set with U2OS (setting [9]), -0.06 with Fibroblast (setting [3]), 1 in the data set on Fibroblast (setting [5]) and 0.88 with Fibroblast (setting [8]).

Turning to `CC(COc1ccccc1)N(CCCl)Cc1ccccc1.Cl` (centres undefined) [PHENOXYBENZAMINE HYDROCHLORIDE], the “Growth Rate” value with HEK-293T (setting [2]) is on record as 0.07; in the data set with HEK-293T (setting [3]), 0.03; with HEK-293T (setting [5]), 0.28; in the data set with HEK-293T (setting [7]) it was 0.49; with HEK-293T (setting [10]) it was 1; in the data set with HEK-293T (setting [8]), 0.56. Further, the “Growth Rate” value in the data set with U2OS (setting [2]) came to 0.42; in the data set on U2OS (setting [7]) it was 0.94; in the data set with Fibroblast (setting [3]), 0.45; with Fibroblast (setting [5]), 0.55; with Fibroblast (setting [7]), 0.49; in the data set with Fibroblast (setting [8]), 0.51.

For the molecule `Cc1ccccc1C#Cc1ccc(CCC(=O)O)cc1`, the “Growth Rate” value was 0.37 with HEK-293T (setting [2]); 0.63 with HEK-293T (setting [3]); 0.81 with HEK-293T (setting [4]); 0.72 in the data set on HEK-293T (setting [5]); 0.75 in the data set on HEK-293T (setting [6]); 0.73 in the data set on HEK-293T (setting [7]). The “Growth Rate” value amounted to 0.67 in the data set on HEK-293T (setting [10]); 0.74 in the data set on HEK-293T (setting [8]); 0.62 in the data set with HEK-293T (setting [9]); 0.25 with U2OS (setting [1]); 0.52 with U2OS (setting [3]); 0.9 in the data set with U2OS (setting [4]). The “Growth Rate” value is 0.67 with U2OS (setting [5]); 0.7 in the data set with U2OS (setting [7]); 0.92 with U2OS (setting [10]); 0.77 in the data set with U2OS (setting [8]); 0.45 in the data set with Fibroblast (setting [1]); 0.93 with Fibroblast (setting [2]). In addition, the “Growth Rate” value with Fibroblast (setting [4]) is reported as 0.07; with Fibroblast (setting [6]) it was 0.32; in the data set on Fibroblast (setting [10]), 0.35; with Fibroblast (setting [9]) it was 0.31.

Take `COc1cc2nc(N3CCN(C(=O)c4ccco4)CC3)nc(N)c2cc1OC.Cl` [PRAZOSIN HYDROCHLORIDE]: the “Growth Rate” value in the data set with HEK-293T (setting [3]) was 0.79; in the data set on HEK-293T (setting [5]), 0.66; in the data set on HEK-293T (setting [7]) it was 0.88; in the data set on HEK-293T (setting [8]), 0.92; in the data set with U2OS (setting [1]) it was -0.45; with U2OS (setting [3]), 0.78. Moreover, the “Growth Rate” value in the data set with U2OS (setting [5]) is 0.57; in the data set on U2OS (setting [6]), 0.91; with U2OS (setting [7]), 0.56; with U2OS (setting [8]), 0.77; with U2OS (setting [9]) it was 0.92; in the data set on Fibroblast (setting [3]), -0.46. For the same molecule, the “Growth Rate” value in the data set with Fibroblast (setting [5]) is reported as 0.21; in the data set with Fibroblast (setting [6]), 0.92; with Fibroblast (setting [7]) it was 0.49; in the data set on Fibroblast (setting [8]), 0.44.

On to `C[C@H](N)COC(=O)[C@@H](CCCCN)NC(=O)Cc1c(-c2ccc3ccccc3c2)[nH]c2c1ccc1ccccc12`, for which the “Growth Rate” value in the data set with HEK-293T (setting [2]) is recorded as 0.88; with HEK-293T (setting [5]) it was 0.97; in the data set on U2OS (setting [3]), 0.46; in the data set on U2OS (setting [5]), 0.89; in the data set on U2OS (setting [6]) it was 0.83; with U2OS (setting [7]), 0.73. Moreover, the “Growth Rate” value is on record as 0.76 with U2OS (setting [10]); 0.29 in the data set on Fibroblast (setting [1]); 0.37 with Fibroblast (setting [2]); 0.67 in the data set on Fibroblast (setting [3]); 0.71 with Fibroblast (setting [7]); 0.64 in the data set on Fibroblast (setting [8]).

With `O=C(NCCNCC(O)COc1ccc(O)cc1)N1CCOCC1.O=C(NCCNCC(O)COc1ccc(O)cc1)N1CCOCC1.O=C(O)/C=C/C(=O)O` (centres undefined) [XAMOTEROL FUMARATE], the “Growth Rate” value in the data set with HEK-293T (setting [1]) is recorded as 0.82; in the data set on HEK-293T (setting [4]), 0.64; in the data set with HEK-293T (setting [6]) it was 0.95; with U2OS (setting [1]), 0.31; in the data set with U2OS (setting [2]), -1; in the data set on Fibroblast (setting [1]), -0.24. Also, the “Growth Rate” value in the data set with Fibroblast (setting [2]) is on record as -0.01.

Consider `COc1cc2c(Oc3ccc(NC(=O)C4(C(=O)Nc5ccc(F)cc5)CC4)cc3F)ccnc2cc1OCCCN1CCOCC1` [FORETINIB], for which the “Growth Rate” value in the data set with HEK-293T (setting [3]) is reported as -0.97; with HEK-293T (setting [4]), -0.98; in the data set on HEK-293T (setting [5]), -0.79; with HEK-293T (setting [6]), -0.89; in the data set with HEK-293T (setting [7]) it was -0.65; in the data set with HEK-293T (setting [10]), -0.82. Also, the “Growth Rate” value in the data set on HEK-293T (setting [8]) was -0.54; with HEK-293T (setting [9]) it was -0.7; with U2OS (setting [3]), 0.16; in the data set with U2OS (setting [4]), -0.08; in the data set on U2OS (setting [5]) it was -0.1; with U2OS (setting [6]), -0.03. Further, the “Growth Rate” value with U2OS (setting [7]) is recorded as -0.03; with U2OS (setting [10]), 0.01; in the data set with U2OS (setting [8]), 0; in the data set with Fibroblast (setting [3]) it was -0.99; in the data set with Fibroblast (setting [4]), -1; with Fibroblast (setting [5]), -0.98. Moreover, the “Growth Rate” value is given as -0.95 in the data set with Fibroblast (setting [6]); -0.93 with Fibroblast (setting [7]); -0.9 in the data set on Fibroblast (setting [10]); -0.88 with Fibroblast (setting [8]); -0.91 in the data set on Fibroblast (setting [9]).

`C=CCN1C[C@H](C(=O)N(CCCN(C)C)C(=O)NCC)C[C@@H]2c3cccc4[nH]cc(c34)C[C@H]21` [CABERGOLINE]: the “Growth Rate” value in the data set with HEK-293T (setting [3]) was 0.78; with HEK-293T (setting [4]), 0.46; in the data set on HEK-293T (setting [5]) it was 0.93; in the data set on U2OS (setting [2]) it was -1; in the data set on Fibroblast (setting [1]), -0.05; in the data set on Fibroblast (setting [2]), 0.7. The “Growth Rate” value in the data set with Fibroblast (setting [3]) was found to be 0.44; in the data set with Fibroblast (setting [4]), 1; in the data set with Fibroblast (setting [5]), 0.91.
